Results taken from patent US20260365670A1, “EGFR INHIBITORS AND USES THEREOF” (DIZAL (JIANGSU) PHARMACEUTICAL CO., LTD., priority 2022, published 2026).
pIC50: −log10 of the molar value. Read-outs that look alike come from different tables or passages of the source.

Assays:
EGFR wild type = molecular target: T1, EGFR wild type (Homo sapiens, UniProt P00533); assay: Inhibition of EGFR wild type biochemical enzymatic activity (HTRF); details: EGFR WT, 1 mM ATP, 1 h, room temperature, read-out: IC50 (nM) @WT
T1 construct: purchased Carna Bio
T1 sequence (P00533 25-1210): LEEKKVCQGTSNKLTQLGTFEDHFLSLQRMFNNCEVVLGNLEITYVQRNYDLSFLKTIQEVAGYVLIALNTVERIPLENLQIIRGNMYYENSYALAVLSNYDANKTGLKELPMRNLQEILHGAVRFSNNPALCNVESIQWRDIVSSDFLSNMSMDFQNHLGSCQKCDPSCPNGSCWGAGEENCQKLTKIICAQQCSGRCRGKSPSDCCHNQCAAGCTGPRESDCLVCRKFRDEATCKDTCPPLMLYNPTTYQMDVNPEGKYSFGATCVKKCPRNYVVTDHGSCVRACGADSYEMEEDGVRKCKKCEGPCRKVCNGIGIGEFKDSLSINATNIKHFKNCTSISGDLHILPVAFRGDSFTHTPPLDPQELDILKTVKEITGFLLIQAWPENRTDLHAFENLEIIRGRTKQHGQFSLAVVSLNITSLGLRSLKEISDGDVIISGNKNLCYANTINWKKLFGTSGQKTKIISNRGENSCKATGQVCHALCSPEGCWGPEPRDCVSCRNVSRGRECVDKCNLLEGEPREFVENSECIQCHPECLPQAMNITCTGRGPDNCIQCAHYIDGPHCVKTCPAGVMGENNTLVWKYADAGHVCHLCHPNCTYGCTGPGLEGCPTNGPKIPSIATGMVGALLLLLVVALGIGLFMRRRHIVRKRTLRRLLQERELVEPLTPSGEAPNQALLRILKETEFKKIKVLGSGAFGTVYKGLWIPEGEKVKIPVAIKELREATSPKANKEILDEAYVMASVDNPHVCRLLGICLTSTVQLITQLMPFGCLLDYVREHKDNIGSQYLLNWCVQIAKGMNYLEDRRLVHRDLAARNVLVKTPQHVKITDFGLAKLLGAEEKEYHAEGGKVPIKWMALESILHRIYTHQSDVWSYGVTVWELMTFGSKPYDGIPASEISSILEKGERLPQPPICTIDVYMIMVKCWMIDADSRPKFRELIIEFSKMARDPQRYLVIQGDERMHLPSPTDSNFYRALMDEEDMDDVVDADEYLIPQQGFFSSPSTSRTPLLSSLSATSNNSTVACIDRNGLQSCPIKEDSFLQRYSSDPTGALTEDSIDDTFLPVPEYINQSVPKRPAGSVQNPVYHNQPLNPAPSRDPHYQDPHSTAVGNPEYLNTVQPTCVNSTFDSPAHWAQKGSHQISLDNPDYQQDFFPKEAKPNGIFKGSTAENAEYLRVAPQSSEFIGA
Outline: (§1)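 1 mM ATP, 1 μM biotin-TK peptide, 5 mM MgCl2, 1 mM MnCl2, 0.01% CHAPS, 1 mM DTT, 0.5% DMSO; 1 h RT; EDTA stop; HTRF 665/615 nm; IC50 via 4PL.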

EGFR L858R = molecular target: T2, EGFR L858R (Homo sapiens, UniProt P00533, L858R); assay: Inhibition of EGFR L858R biochemical enzymatic activity (HTRF); details: 1 mM ATP, 1 h, room temperature, read-out: IC50 (nM) @L858R
T2 construct: purchased Carna Bio
T2 sequence (P00533 25-1210 L858R): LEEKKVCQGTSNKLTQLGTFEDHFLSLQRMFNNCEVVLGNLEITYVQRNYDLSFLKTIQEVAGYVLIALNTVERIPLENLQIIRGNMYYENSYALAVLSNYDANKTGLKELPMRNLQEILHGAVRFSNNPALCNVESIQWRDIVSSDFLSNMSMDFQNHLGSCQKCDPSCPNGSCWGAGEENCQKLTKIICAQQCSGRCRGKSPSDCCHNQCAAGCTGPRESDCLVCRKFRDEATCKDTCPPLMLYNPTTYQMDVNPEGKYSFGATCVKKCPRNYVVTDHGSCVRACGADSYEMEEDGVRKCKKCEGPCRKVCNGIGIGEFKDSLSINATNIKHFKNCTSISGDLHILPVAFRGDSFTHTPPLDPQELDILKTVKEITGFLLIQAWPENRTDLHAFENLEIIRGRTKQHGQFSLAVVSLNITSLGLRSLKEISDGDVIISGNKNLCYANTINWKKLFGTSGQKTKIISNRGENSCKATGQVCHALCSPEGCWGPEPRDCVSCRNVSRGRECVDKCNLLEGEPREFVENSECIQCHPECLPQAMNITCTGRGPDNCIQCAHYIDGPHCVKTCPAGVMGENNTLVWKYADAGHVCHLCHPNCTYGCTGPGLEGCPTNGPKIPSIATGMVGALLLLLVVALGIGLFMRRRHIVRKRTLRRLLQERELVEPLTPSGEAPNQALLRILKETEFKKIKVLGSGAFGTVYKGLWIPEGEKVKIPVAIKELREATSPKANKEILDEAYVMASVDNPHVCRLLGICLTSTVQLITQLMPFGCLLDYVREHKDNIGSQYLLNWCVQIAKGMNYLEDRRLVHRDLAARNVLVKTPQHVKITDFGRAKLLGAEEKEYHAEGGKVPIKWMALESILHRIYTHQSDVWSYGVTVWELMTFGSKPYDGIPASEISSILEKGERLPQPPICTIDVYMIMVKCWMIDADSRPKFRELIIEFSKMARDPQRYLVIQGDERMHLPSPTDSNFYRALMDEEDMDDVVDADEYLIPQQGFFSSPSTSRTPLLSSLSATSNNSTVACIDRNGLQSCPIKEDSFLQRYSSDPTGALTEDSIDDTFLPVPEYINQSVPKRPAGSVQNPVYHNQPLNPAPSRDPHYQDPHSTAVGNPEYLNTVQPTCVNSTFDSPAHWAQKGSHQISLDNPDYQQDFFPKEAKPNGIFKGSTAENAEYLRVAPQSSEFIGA
Outline: as §1

EGFR L858R/T790M = molecular target: T3, EGFR L858R/T790M (Homo sapiens, UniProt P00533, L858R/T790M); assay: Inhibition of EGFR L858R/T790M biochemical enzymatic activity (HTRF); details: EGFR L858R-T790M, 1 mM ATP, 1 h, room temperature, read-out: IC50 (nM) @L858R-T790M
T3 construct: purchased Carna Bio
Outline: as §1

EGFR Exon19Del = molecular target: T4, EGFR Exon19Del (Homo sapiens, UniProt P00533, DEL746-750); assay: Inhibition of EGFR Exon19Del biochemical enzymatic activity (HTRF); details: EGFR Del19, 1 mM ATP, 1 h, room temperature, read-out: IC50 @Del19
T4 construct: purchased Carna Bio
T4 sequence (P00533 with tags, fused parts or gaps DEL746-750 limits assumed): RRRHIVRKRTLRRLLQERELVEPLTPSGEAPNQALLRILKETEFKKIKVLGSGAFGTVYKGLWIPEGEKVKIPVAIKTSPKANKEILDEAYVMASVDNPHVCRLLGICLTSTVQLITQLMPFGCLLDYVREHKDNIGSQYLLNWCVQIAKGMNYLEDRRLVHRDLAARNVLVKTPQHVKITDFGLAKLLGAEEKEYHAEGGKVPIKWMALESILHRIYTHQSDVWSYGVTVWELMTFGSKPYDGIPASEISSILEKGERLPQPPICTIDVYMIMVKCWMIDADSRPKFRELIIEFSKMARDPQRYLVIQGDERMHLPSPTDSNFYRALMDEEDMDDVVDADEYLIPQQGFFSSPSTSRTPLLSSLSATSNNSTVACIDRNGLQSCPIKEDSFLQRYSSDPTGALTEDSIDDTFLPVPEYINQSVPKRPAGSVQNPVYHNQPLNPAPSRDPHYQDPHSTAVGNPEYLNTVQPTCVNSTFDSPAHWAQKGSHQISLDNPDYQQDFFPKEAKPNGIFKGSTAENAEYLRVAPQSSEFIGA
Outline: as §1

EGFR Exon19Del/T790M = molecular target: T5, EGFR Exon19Del/T790M (Homo sapiens, UniProt P00533, DEL746-750/T790M); assay: Inhibition of EGFR Exon19Del/T790M biochemical enzymatic activity (HTRF); details: EGFR Del19-T790M, 1 mM ATP, 1 h, room temperature, read-out: IC50 (nM) @Del19-T790M
T5 construct: purchased Carna Bio
T5 sequence (P00533 with tags, fused parts or gaps DEL746-750/T790M limits assumed): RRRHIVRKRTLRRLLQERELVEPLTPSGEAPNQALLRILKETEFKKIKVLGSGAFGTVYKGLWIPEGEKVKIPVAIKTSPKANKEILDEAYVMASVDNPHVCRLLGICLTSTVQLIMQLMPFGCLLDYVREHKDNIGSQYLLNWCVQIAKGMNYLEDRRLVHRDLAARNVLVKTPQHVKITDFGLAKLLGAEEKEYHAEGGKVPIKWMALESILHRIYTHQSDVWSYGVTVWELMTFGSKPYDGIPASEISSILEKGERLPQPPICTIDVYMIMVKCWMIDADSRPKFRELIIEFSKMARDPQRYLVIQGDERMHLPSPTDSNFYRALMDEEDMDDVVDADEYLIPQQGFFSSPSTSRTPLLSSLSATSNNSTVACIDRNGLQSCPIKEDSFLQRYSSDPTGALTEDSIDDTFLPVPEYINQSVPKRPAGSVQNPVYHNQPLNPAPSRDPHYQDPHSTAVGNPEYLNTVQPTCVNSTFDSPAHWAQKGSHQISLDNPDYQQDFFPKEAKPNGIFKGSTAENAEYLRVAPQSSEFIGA
Outline: as §1

EGFR[T790M/C797S/L858R] = molecular target: T6, EGFR[T790M/C797S/L858R] (Homo sapiens, UniProt P00533, C797S/L858R/T790M); assay: Inhibition of EGFR[T790M/C797S/L858R] biochemical enzymatic activity (HTRF); details: EGFR T790M-C797S-L858R, 1 mM ATP, 1 h, room temperature, read-out: IC50 (nM) @T790M- C797S - L858R
T6 construct: purchased Carna Bio
Outline: as §1

[1] = molecular target: T7, EGFR[T790M/C797S/d746-750] (Homo sapiens, UniProt P00533, C797S/DEL746-750/T790M); assay: Inhibition of EGFR[T790M/C797S/d746-750] biochemical enzymatic activity (HTRF); details: EGFR T790M-C797S-Del19, 1 mM ATP, 1 h, room temperature, read-out: IC50 (nM) @T790M - C797S - Del19
T7 construct: purchased Carna Bio
T7 sequence (P00533 with tags, fused parts or gaps DEL746-750/T790M/C797S limits assumed): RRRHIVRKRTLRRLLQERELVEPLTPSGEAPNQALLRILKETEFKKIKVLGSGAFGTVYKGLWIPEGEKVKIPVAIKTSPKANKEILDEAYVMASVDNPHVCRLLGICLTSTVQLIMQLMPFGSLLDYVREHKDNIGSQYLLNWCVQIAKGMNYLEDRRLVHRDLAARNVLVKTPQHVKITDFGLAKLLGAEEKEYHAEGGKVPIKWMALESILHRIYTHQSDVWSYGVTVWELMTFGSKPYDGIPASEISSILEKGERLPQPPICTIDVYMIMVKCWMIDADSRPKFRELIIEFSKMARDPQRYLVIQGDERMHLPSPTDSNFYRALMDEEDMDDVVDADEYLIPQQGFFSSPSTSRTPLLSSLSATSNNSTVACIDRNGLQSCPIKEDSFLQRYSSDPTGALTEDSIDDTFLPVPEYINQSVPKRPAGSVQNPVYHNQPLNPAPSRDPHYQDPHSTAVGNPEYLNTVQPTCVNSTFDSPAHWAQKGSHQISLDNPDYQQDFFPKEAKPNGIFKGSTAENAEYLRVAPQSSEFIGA
Outline: as §1

EGFR (d746-750 C797S) = molecular target: T8, EGFR (d746-750 C797S) (Homo sapiens, UniProt P00533, C797S/DEL746-750); assay: Inhibition of EGFR (d746-750 C797S) biochemical enzymatic activity (HTRF); details: EGFR Del19-C797S, 1 mM ATP, 1 h, room temperature, read-out: IC50 (nM) @Del19-C797S
T8 construct: purchased signalchem
T8 sequence (P00533 with tags, fused parts or gaps DEL746-750/C797S limits assumed): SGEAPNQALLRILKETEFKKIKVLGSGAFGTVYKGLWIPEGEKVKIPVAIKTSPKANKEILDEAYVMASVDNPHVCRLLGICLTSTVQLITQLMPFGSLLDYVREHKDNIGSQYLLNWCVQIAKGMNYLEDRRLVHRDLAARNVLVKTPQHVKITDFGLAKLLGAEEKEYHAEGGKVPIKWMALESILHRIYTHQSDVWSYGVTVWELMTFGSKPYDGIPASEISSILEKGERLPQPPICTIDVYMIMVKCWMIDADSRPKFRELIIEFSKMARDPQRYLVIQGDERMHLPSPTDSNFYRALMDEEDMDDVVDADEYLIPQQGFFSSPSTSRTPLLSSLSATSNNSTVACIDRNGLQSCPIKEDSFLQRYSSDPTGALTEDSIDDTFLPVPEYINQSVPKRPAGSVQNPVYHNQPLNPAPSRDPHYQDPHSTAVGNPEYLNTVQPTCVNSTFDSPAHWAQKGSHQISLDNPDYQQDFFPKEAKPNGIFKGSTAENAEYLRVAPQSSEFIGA
Outline: as §1

EGFR (C797S L858R) = molecular target: T9, EGFR (C797S L858R) (Homo sapiens, UniProt P00533, C797S/L858R); assay: Inhibition of EGFR (C797S L858R) biochemical enzymatic activity (HTRF); details: EGFR L858-C797S, 1 mM ATP, 1 h, room temperature, read-out: IC50 (nM) @L858-C797S
T9 construct: purchased signalchem
Outline: as §1

[2] = test system: Ba/F3 cells expressing EGFR mutations; assay: Cell proliferation assay, Ba/F3 cells expressing EGFR mutations (CellTiter-Glo, 72 hours); format: cell-based; details: CellTiter-Glo
Outline: (§2)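 Seed Ba/F3 at 5000 cells/well and PC-9 at 500 cells/well (10% FBS RPMI1640); incubate overnight; add compound dilution series; read a G0 plate; incubate; read G3; GI50 from best-fit curve.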

PC-9 = assay: Cell proliferation assay, PC-9 cells (CellTiter-Glo, 72 hours); format: cell-based; details: PC9 cells, CellTiter-Glo, read-out: PC9 GI50
Outline: as §2

A-431 = assay: Cell proliferation GI50, A-431 cells (Table 6); format: cell-based
Experimental: [Worded in the source for another cell line; this cell line is reported under the same test.] Ba/F3 cells expressing EGFR mutations were seeded in 384-well plates at 5000 cells/well in RPMI1640 medium containing […]. PC-9 at 500 cells/well was seeded into 384-well plates in RPMI1640 medium with 10% FBS. After overnight incubation, the assay plates were dosed with compounds at a series of concentrations. Alongside dosing the assay plates, the day 0 plate was processed using CellTiter-Glo® Luminescent Cell Viability Assay (Promega) to measure the number of viable cells (G0). The assay plates were further incubated for 72 hours and the number of viable cells (G3) was measured. The percentage of proliferation was calculated as: […]=100×(G3 value of sample well−G0 value)/(G3 value of DMSO control−G0 value). The concentration of compound producing 50% proliferation inhibition (GI50) was further calculated in best-fit curves using XLFit software. N/A=not available.

[3] = BaF3 cells, EGFR DEL19-C797S, read-out: DEL19-C797S/BaF3 GI50
[4] = BaF3 cells, EGFR DEL19-T790-C797S, read-out: DEL19-T790-C797S/BaF3 GI50
[5] = BaF3 cells, EGFR L858R, read-out: L858R/BaF3 GI50
[6] = BaF3 cells, EGFR L858R-C797S, read-out: L858R-C797S/BaF3 GI50
[7] = BaF3 cells, EGFR L858R-T790-C797S, read-out: L858R-T790-C797S/BaF3 GI50
[8] = BaF3 cells, EGFR L858R-T790M, read-out: L858R-T790M/BaF3 GI50
[9] = EGFR DEL19-T790M, read-out: DEL19-T790M GI50
[10] = Mus musculus, BaF3, 72 h, BaF3 cells, EGFR DEL19-C797S, read-out: DEL19-C797S/BaF3 GI50
[11] = Mus musculus, BaF3, 72 h, BaF3 cells, EGFR DEL19-T790-C797S, read-out: DEL19-T790-C797S/BaF3 GI50
[12] = Mus musculus, BaF3, 72 h, BaF3 cells, EGFR L858R, read-out: L858R/BaF3 GI50
[13] = Mus musculus, BaF3, 72 h, BaF3 cells, EGFR L858R-C797S, read-out: L858R-C797S/BaF3 GI50
[14] = Mus musculus, BaF3, 72 h, BaF3 cells, EGFR L858R-T790-C797S, read-out: L858R-T790-C797S/BaF3 GI50
[15] = Mus musculus, BaF3, 72 h, BaF3 cells, EGFR L858R-T790M, read-out: L858R-T790M/BaF3 GI50
[16] = Mus musculus, BaF3, 72 h, EGFR DEL19-T790M, read-out: DEL19-T790M GI50
[17] = Homo sapiens, A-431, A-431 cells

Row | Structure (SMILES) | IC50 (EGFR wild type) | IC50 (EGFR L858R) | IC50 (EGFR L858R/T790M) | pIC50 (EGFR Exon19Del) | IC50 (EGFR Exon19Del/T790M) | IC50 (EGFR[T790M/C797S/L858R]) | IC50 [1] | IC50 (EGFR (d746-750 C797S)) | IC50 (EGFR (C797S L858R)) | GI50 [2, 3] | GI50 [2, 4] | GI50 [2, 5] | GI50 [2, 6] | GI50 [2, 7] | GI50 [2, 8] | GI50 [2, 9] | GI50 (PC-9; Homo sapiens, PC-9, 72 h) | GI50 (A-431; A-431 cells) | GI50 [2, 10] | GI50 [2, 11] | further results
1 | CCC1CCCOc2c(cnn2C)-c2cc(cn(C)c2=O)C(=O)Nc2nc3ccc(N4CCN(C)CC4)cc3n2C1 (single isomer, unassigned) [Example A16A, 11-Ethyl-5,26-dimethyl-16-(4-methylpiperazin-1-yl)-7-oxa-4,5,13,20,22,26-hexaazapentacyclo[22.3.1.0^{2,6}.0^{13,21}.0^{14,19}]octacosa-1(28),2(6),3,14,16,18,20,24-octaene-23,27-dione] | > 5000 nM | > 5000 nM | > 5000 nM | 6.82 | 127 nM | > 5000 nM | 115 nM | 152 nM | 1350 nM | 0.073 µM | 0.122 µM | 0.182 µM | 0.113 µM | 0.161 µM | 0.165 µM | 0.117 µM | 0.139 µM | 0.095 µM |  |  | 
2 | CCC1CCCOc2c(cnn2C)-c2cc(cn(C)c2=O)C(=O)Nc2nc3ccc(N4CCN(C)CC4)cc3n2C1 (single isomer, unassigned) [Example A16B, 11-Ethyl-5,26-dimethyl-16-(4-methylpiperazin-1-yl)-7-oxa-4,5,13,20,22,26-hexaazapentacyclo[22.3.1.0^{2,6}.0^{13,21}.0^{14,19}]octacosa-1(28),2(6),3,14,16,18,20,24-octaene-23,27-dione] | 288 nM | 28 nM | 22 nM | 8.26 | 12 nM | 14 nM | 10 nM | 3.2 nM | 16 nM | 0.0052 µM | 0.024 µM | 0.021 µM | 0.019 µM | 0.017 µM | 0.053 µM | 0.029 µM |  | 0.664 µM |  |  | GI50 (PC-9): 0.073 µM
3 | Cn1ncc2c1OCCN1CC3CCC(C3)(C1)n1c(nc3ccccc31)NC(=O)c1cc-2c(=O)n(C)c1 (single isomer, unassigned) [Example A61A, 15,21-Dimethyl-23-oxa-2,9,11,15,20,21,26-heptaazaheptacyclo[24.4.1.1^{1,28}.1^{13,17}.0^{2,10}.0^{3,8}.0^{18,22}]tritriaconta-3,5,7,9,13,17(33),18(22),19-octaene-12,16-dione] | > 5000 nM | > 5000 nM | > 5000 nM | 5.66 | > 5000 nM | > 5000 nM | > 5000 nM | 1660 nM | > 5000 nM |  |  |  |  |  |  |  | 1.91 µM |  | 0.521 µM | 0.688 µM | GI50 [2, 12]: 1.37 µM; GI50 [2, 13]: 1.74 µM; GI50 [2, 14]: 1.91 µM; GI50 [2, 15]: 2.66 µM; GI50 [2, 16]: 0.913 µM; GI50 (A-431; [17]): 5.9 µM
4 | C[C@@H]1CCCOc2c(cnn2C)-c2cc(cn(C)c2=O)C(=O)Nc2nc3ccc(N4CCC5(CCN(C)C5)C4)cc3n2C1 (some centres unmarked) [Example A34] |  |  |  |  |  |  |  |  |  |  |  |  |  |  |  |  | 0.0091 µM |  | 0.0011 µM | 0.0013 µM | GI50 [2, 12]: 0.0046 µM; GI50 [2, 13]: 0.0042 µM; GI50 [2, 14]: 0.0089 µM; GI50 [2, 15]: 0.0098 µM; GI50 [2, 16]: 0.005 µM; GI50 (A-431; [17]): 0.587 µM
5 | C[C@@H]1CCCOc2c(cnn2C)-c2cc(cn(C)c2=O)C(=O)Nc2nc3ccc(N4CC(N5CCOCC5)C4)cc3n2C1 [Example A45] |  |  |  |  |  |  |  |  |  |  |  |  |  |  |  |  | 0.015 µM |  | 0.0051 µM | 0.016 µM | GI50 [2, 12]: 0.0086 µM; GI50 [2, 13]: 0.014 µM; GI50 [2, 14]: 0.0093 µM; GI50 [2, 15]: 0.029 µM; GI50 [2, 16]: 0.02 µM; GI50 (A-431; [17]): 0.245 µM
6 | CN1CCN(c2ccc3c(c2)nc2n3C34CCC(CN(CCOc5c(cnn5C)-c5cc(cn(C)c5=O)C(=O)N2)C3)C4)CC1 (centres unmarked) [Example A60, 15,21-dimethyl-6-(4-methylpiperazin-1-yl)-23-oxa-2,9,11,15,20,21,26-heptaazaheptacyclo[24.4.1.1^{1,28}.1^{13,17}.0^{2,10}.0^{3,8}.0^{18,22}]tritriaconta-3,5,7,9,13,17(33),18(22),19-octaene-12,16-dione] |  | 917 nM | 240 nM | 7.64 | 8.6 nM | 157 nM | 9.4 nM | 18 nM | 619 nM | 0.019 µM | 0.04 µM | 0.087 µM | 0.12 µM | 0.086 µM | 0.457 µM | 0.063 µM |  | 4.11 µM |  |  | GI50 (PC-9): 0.146 µM
